# From patent publication US10221163B2 (priority 2015, dated 2019)
# Counter-ions that a name gives are not always drawn. Like-named read-outs stand apart in the source and are kept apart here.
# Assays:
# IMP-1 = IMP-1 (Serratia marcescens, UniProt P52699); assay: biochemical; assay type: biochemical; conditions: fluorescence assay, CCF2-FA substrate, 2 pM enzyme, 2 hours at 25° C., read-out: IMP-1 IC50
# How it was run: (§1)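 Semi-log dose-response curves, fitted with a 4-parameter model, gave IC50s. The underlying signal was CCF2-FA fluorescence following 2 hours at 25° C with enzyme, substrate and inhibitor combined.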
# NDM-1 = NDM-1 (Klebsiella pneumoniae, UniProt C7C422); assay: biochemical; assay type: biochemical; conditions: fluorescence assay, CCF2-FA substrate, 1 pM enzyme, 2 hours at 25° C., read-out: NDM-1 IC50
# Sequence of NDM-1 (C7C422 whole entry, looked up, species assumed): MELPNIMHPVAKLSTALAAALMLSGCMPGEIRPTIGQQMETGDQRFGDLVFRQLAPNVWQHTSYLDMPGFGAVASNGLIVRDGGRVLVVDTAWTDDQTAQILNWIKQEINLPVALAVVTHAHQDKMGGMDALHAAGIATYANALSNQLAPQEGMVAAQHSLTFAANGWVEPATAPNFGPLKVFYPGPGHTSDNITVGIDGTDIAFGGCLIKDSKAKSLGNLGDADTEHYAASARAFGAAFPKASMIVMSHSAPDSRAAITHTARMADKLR
# How it was run: as §1
# VIM-1 = VIM-1 (Pseudomonas aeruginosa (strain ATCC 15692 / DSM 22644 / CIP 104116 / JCM 14847 / LMG 12228 / 1C / PRS 101 / PAO1), UniProt A0A0F7KYQ8); assay: biochemical; conditions: CCF2-FA substrate, 30 pM enzyme, 2 hours at 25° C.
# Description: Enzyme Activity: Determination of IC50
# The Class B enzyme activities were measured in the presence of the test inhibitor in a fluorescence assay against a commercially available substrate consisting of a cephalosporin core linking 7-hydroxycoumarin to fluorescein (CCF2-FA). […] In a 384-well microplate, the test inhibitor was incubated with the metallo-β-lactamase enzyme and the substrate for 2 hours at 25° C. […] The IC50 value was determined from semi-logarithmic plots of enzyme inhibition versus inhibitor concentration, with a curve generated using a 4-parameter fit.
# [1] = tested on: Escherichia coli expressing NDM-1 (CLB30005, CLB30016); assay type: cell-based; conditions: with imipenem 1 μg/ml; for Escherichia coli MITC95: NDM-1 strain, 95% inhibition of growth; for Escherichia coli expressing NDM-1 (CLB30016) MITC95: 95% inhibition of bacterial growth
# How it was run: (§2)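 Clinical strains grown overnight on blood agar at 35°C, colonies suspended in saline, diluted 1:100 into 1.1×CAMHB. Test compound titrated with imipenem at 1 μg/ml; incubated 22–24 h at 35°C, growth read by absorbance.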
# [2] = tested on: Klebsiella pneumoniae expressing VIM-1 (IHMA599644); assay type: cell-based; conditions: for Klebsiella pneumoniae MITC95: VIM-1 strain IHMA599644, with imipenem 1 μg/ml, 95% inhibition of growth; for Klebsiella pneumoniae expressing VIM-1 (IHMA599644) MITC95: with imipenem 1 μg/ml, 95% inhibition of bacterial growth
# How it was run: as §2
# [3] = tested on: Serratia marcescens expressing IMP-1 (CL5741); assay type: cell-based; conditions: for Serratia marcescens MITC95: IMP-1 strain CL5741, with imipenem 1 μg/ml, 95% inhibition of growth; for Serratia marcescens expressing IMP-1 (CL5741) MITC95: with imipenem 1 μg/ml, 95% inhibition of bacterial growth
# How it was run: as §2
# [4] = tested on: Pseudomonas aeruginosa efflux+ (MB9798), IMP-1; assay type: cell-based; parameters: Concentration of metallo-β-lactamase inhibitor which restores susceptibility of efflux + (MB9798) strain to imipenem: unit not given here; conditions: C, D serine β-lactamase inhibitor closely related to relebactam; for P. aeruginosa expressing IMP-1, efflux + (MB9798) MITC95: concentration restoring susceptibility to imipenem at 2 μg/mL in the presence of a class A; for Concentration of metallo-β-lactamase inhibitor which restores susceptibility of efflux + (MB9798) strain to imipenem: imipenem at 2 μg/mL, in the presence of a class A
# How it was run: (§3)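 P. aeruginosa PAO1-derived IMP-1 strains, efflux+ MB9798 and efflux− MB9799, tested by standard microbroth MIC with imipenem and/or ceftazidime fixed, usually at CLSI breakpoint, plus fixed class A/C β-lactamase inhibitor against AmpC. Inhibitor titrated; concentration restoring susceptibility recorded; MB9798/MB9799 fold difference indicates efflux.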
# [5] = tested on: Pseudomonas aeruginosa efflux− (MB9799), IMP-1; assay type: cell-based; conditions: C, D serine β-lactamase inhibitor closely related to relebactam; for P. aeruginosa expressing IMP-1, efflux − (MB9799) MITC95: concentration restoring susceptibility to imipenem at 2 μg/mL in the presence of a class A; for Concentration of metallo-β-lactamase inhibitor which restores susceptibility of efflux − (MB9799) strain to imipenem: imipenem at 2 μg/mL, in the presence of a class A
# How it was run: as §3
# [6] = tested on: Pseudomonas aeruginosa MB9798 vs MB9799
# Description: The strain background was Pseudomonas aeruginosa PAO1.
# The strain set was then used as a pair to determine the effect of metallo-β-lactamase inhibitors of Formula I on the MIC of imipenem and/or ceftazidime. A fixed concentration of antibiotic was included in standard microbroth MIC tests, usually at the CLSI (Clinical and Laboratory Standards Institute) breakpoint concentration. A fixed amount of a class A/C beta-lactamase inhibitor was also included to inhibit the resident Pseudomonas AmpC enzyme. A serial titration of the metallo-β-lactamase inhibitor was included and the concentration of metallo-β-lactamase inhibitor which restores susceptibility of the strain to the included antibiotic was recorded. That concentration of metallo-β-lactamase inhibitor was then compared between the two strains to determine the fold difference between the efflux+ (MB9798) and efflux− (MB9799) strains. This was taken as an indication of the extent to which the MBLi is subject to efflux.
# [7] = ratio MITC95 PA_9798/MITC95 PA_9799
# [8] = fluorescence assay, read-out: VIM-1 IC50
# [9] = fold difference between efflux+ (MB9798) and efflux− (MB9799) strains, imipenem at 2 μg/mL
# Sequence of IMP-1 (P52699 whole entry, looked up, species assumed): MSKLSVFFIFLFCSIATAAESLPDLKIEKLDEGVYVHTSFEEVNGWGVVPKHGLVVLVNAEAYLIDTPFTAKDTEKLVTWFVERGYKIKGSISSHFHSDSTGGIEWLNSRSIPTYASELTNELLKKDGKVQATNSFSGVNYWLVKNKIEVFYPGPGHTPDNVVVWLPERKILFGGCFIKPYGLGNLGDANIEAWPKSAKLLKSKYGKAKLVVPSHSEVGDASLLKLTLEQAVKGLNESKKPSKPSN
SMILES,IC50 (IMP-1) [nM],IC50 (NDM-1) [nM],"IC50 (VIM-1; VIM-1 IC50, fluorescence assay) [nM]",Escherichia coli MITC95 [1] [µM],Klebsiella pneumoniae MITC95 [2] [µM],Serratia marcescens MITC95 [3] [µM],"P. aeruginosa expressing IMP-1, efflux + (MB9798) MITC95 [4] [µM]","P. aeruginosa expressing IMP-1, efflux − (MB9799) MITC95 [5] [µM]","Efflux ratio [6, 7]",Concentration of metallo-β-lactamase inhibitor which restores susceptibility of efflux + (MB9798) strain to imipenem [4],IC50 (VIM-1; [8]) [nM],Escherichia coli expressing NDM-1 (CLB30016) MITC95 [1] [µM],Klebsiella pneumoniae expressing VIM-1 (IHMA599644) MITC95 [2] [µM],Serratia marcescens expressing IMP-1 (CL5741) MITC95 [3] [µM],Concentration of metallo-β-lactamase inhibitor which restores susceptibility of efflux − (MB9799) strain to imipenem [5],"Efflux ratio [6, 9]",other results
"Nc1nc2c(-c3ccc(S(=O)(=O)NC4CNC[C@H]4N)c(S(N)(=O)=O)c3-c3nn[nH]n3)cccc2[nH]1 (stereo in doubt) [Example 322, 4-(2-Amino-1H-benzo[d]imidazol-4-yl)-N1-((3S,4R)-4-aminopyrrolidin-3-yl)-3-(2H-tetrazol-5-yl)benzene-1,2-disulfonamide]",0.738,0.0536,0.182,0.5208,1.302,1.042,0.651,0.7813,0.83,–,–,–,–,–,–,–,–
"NCCNS(=O)(=O)c1ccc(-c2cccc(C(=O)NCC(O)CN)c2)c(-c2nn[nH]n2)c1S(N)(=O)=O (stereo in doubt) [Example 347, (S)—N-(3-amino-2-hydroxypropyl)-4′-(N-(2-aminoethyl)sulfamoyl)-3′-sulfamoyl-2′-(2H-tetrazol-5-yl)[1,1′-biphenyl]-3-carboxamide]",3.97,2.04,0.536,1.563,1.563,1.563,1.563,0.7813,2.00,–,–,–,–,–,–,–,–
"NCC1(NS(=O)(=O)c2ccc(-c3ccc(N)nc3)c(-c3nn[nH]n3)c2S(N)(=O)=O)CCNC1 (stereo in doubt) [Example 486, (R)-N1-(3-(aminomethyl)pyrrolidin-3-yl)-4-(6-aminopyridin-3-yl)-3-(2H-tetrazol-5-yl)benzene-1,2-disulfonamide dihydrochloride]",–,–,0.321,–,1.563,0.7813,–,–,–,1.563,–,–,–,–,–,–,"IC50 (IMP-1; dihydrochloride): 0.422 nM; IC50 (NDM-1; dihydrochloride): 0.176 nM; Escherichia coli MITC95 ([1]; dihydrochloride): 0.7813 µM; Concentration of metallo-β-lactamase inhibitor which restores susceptibility of efflux − (MB9799) strain to imipenem ([5]; dihydrochloride): 0.7813; Efflux ratio ([6]; fold difference between efflux+ (MB9798) and efflux− (MB9799) strains, imipenem at 2 μg/mL, dihydrochloride): 2.00"
"Nc1nc2cccc(-c3ccc(S(N)(=O)=O)c(S(N)(=O)=O)c3-c3nn[nH]n3)c2[nH]1 [Example 1, 4-(2-amino-3H-benzo[d]imidazol-4-yl)-3-(2H-tetrazol-5-yl)benzene-1,2-disulfonamide]",0.581,0.0853,–,–,–,–,0.5573,0.8542,0.65,–,0.264,0.5156,1.448,0.8542,–,–,–
"NCCNS(=O)(=O)c1ccc(-c2cccc3oc(N)nc23)c(-c2nn[nH]n2)c1S(N)(=O)=O [Example 11, 4-(2-aminobenzo[d]oxazol-4-yl)-N^1-(2-aminoethyl)-3-(2H-tetrazol-5-yl)benzene-1,2-disulfonamide]",–,–,–,–,–,–,0.3906,0.3906,1.00,–,0.0502,0.7813,1.563,0.7813,–,–,–
"Nc1nc2c(-c3ccc(S(=O)(=O)N[C@@H](N)c4ccccn4)c(S(N)(=O)=O)c3-c3nnn[nH]3)cccc2s1.O=C(O)C(F)(F)F [Example 99, (R)-(4-(2-aminobenzo[d]thiazol-4-yl)-2-sulfamoyl-3-(1H-tetrazol-5-yl)phenylsulfonamido)(pyridin-2-yl)methanaminium 2,2,2-trifluoroacetate]",–,–,–,–,–,–,25,3.125,8.00,–,0.499,12.5,25,6.25,–,–,–
"C[C@H](CN)NS(=O)(=O)c1ccc(-c2cccnc2N)c(-c2nn[nH]n2)c1S(N)(=O)=O [Example 212, (R)-N1-(1-amino-propan-2-yl)-4-(2-aminopyridin-3-yl)-3-(2H-tetrazol-5-yl)benzene-1,2-disulfonamide]",–,–,–,–,–,–,1.563,1.563,1.00,–,0.154,0.3906,1.563,0.7813,–,–,–
NCc1sc(N)nc1-c1cccc(-c2ccc(S(=O)(=O)N[C@@H]3CCNC3)c(S(N)(=O)=O)c2-c2nnn[nH]2)c1 [Example 432],–,–,0.387,0.7813,1.563,0.7813,–,–,–,0.7813,–,–,–,–,0.7813,1.00,–
NCCNC(=O)c1cc(Cl)cc(-c2ccc(S(=O)(=O)N[C@@H]3CCNC3)c(S(N)(=O)=O)c2-c2nn[nH]n2)c1N [Example 450],–,–,–,1.563,1.563,1.563,–,–,–,1.563,0.276,–,–,–,0.7813,2.00,–
"CNc1nc2c(-c3ccc(S(=O)(=O)NCCN)c(S(N)(=O)=O)c3-c3nn[nH]n3)cccc2[nH]1 [Example 467, N1-(2-aminoethyl)-4-(2-(methylamino)-1H-benzo[d]imidazol-4-yl)-3-(2H-tetrazol-5-yl)benzene-1,2-disulfonamide]",–,–,–,0.7813,1.563,0.7813,–,–,–,0.3906,0.12,–,–,–,0.7813,0.50,–
